Values joined by “and” are separate entries in the source; they are usually repeats but may differ in a detail not shown here. Equal entries are not always repeated. Values belong to the molecule of their own block, whether it stands above or below them.
Experiments:
LC3A [1] = biological target: T1, LC3A (Homo sapiens, UniProt Q9H492); test: FP assay with Cy5-labelled p62 LIR tracer (protein titration and tracer displacement); format: binding; settings: for FP assay result (normalised FP signal): replicates, listed as TH152; for normalized FP signal, p62 LIR tracer displacement: LC3A
LC3B = LC3B (Homo sapiens, UniProt Q9GZQ8); test: as above; format: binding; settings: for FP assay result (normalised FP signal): replicates, listed as TH152; for normalized FP signal, p62 LIR tracer displacement: LC3B; for compound titration LC3B (displacement curve, FP signal): two replicate columns per compound
LC3A [2] = biological target: T1, LC3A; test: Isothermal titration calorimetry (ITC); format: binding; settings: LC3A
From the text: To minimize nonspecific dilution heat effects, DMSO concentrations in the protein and compound samples were matched. […] For this protocol, the chamber was pre-equilibrated with the protein, and the test compounds were titrated while continuously measuring the rate of exothermic heat evolution. The heat of binding was integrated, corrected, and fitted to an independent single-binding site model based on the manufacturer’s instructions, from which thermodynamic parameters (ΔH and TΔS), equilibrium association and dissociation constants (KA and KD, respectively), and stoichiometry (n) were calculated using TA Instruments NanoAnalyze software.

[3] = test system: RPE-1 GFP-LC3B-RPF-LC3∆G reporter cell line; test: Autophagy flux assay; format: cell-based; settings: rebuttal letter
From the text: LC3/GABARAP in vitro, but no attempts are made to replicate the previously reported cellular activity of these compounds. It would be beneficial to know whether these compounds have any effect on autophagy in the authors’ hands, and therefore could act by alternative mechanisms, or whether they […]
Response: We were very concerned that the ligands used for ATTEC development might induce general toxicity in cell lines, as they are based on drugs used in oncology (such as the kinesin inhibitor 10O5) and the isoxazole scaffold often used in the development of multi-targeted kinase inhibitors. However, we have now investigated compounds 1-4 in autophagy flux assays using the RPE-1 GFP-LC3B-RPF-LC3∆G reporter cell line (single clone) as […]
reported in [PMID:37558952].
(RR_Figure 6). The authors of the first manuscript reporting these ligands [PMID: 31666698]
However, due to the potent activity of 8F20 on KIF11, which will have profound effects on cell trafficking and growth, and DCAF11 (AN1, [PMID: 38036533]), we find it unlikely that the effects on autophagy are due to LC3/GABARAP modulation. Due to the lack of target (LC3/GABARAP) binding in vitro and the […]
of this review but have excluded the data in the manuscript.
RR_figure 5: Autophagy flux measurement for 10O5 and AN2. No induction of autophagy or effects (right panels, assessed by Incucyte (Sartorius) life cell imaging) on cell growth was […]
RR_figure 6: Autophagy flux measurement for 8F20 and AN1 show changes in autophagy flux […]
It is not clear how many biological replicates have been performed. For example, the figure legends […]

[4] = log10 concentration [M] -6.69897
[5] = log10 concentration [M] -7.79588
[6] = log10 concentration [M] -8.08092
[7] = log10 concentration [M] -3.82391
[8] = log10 concentration [M] -4.1549
[9] = log10 concentration [M] -4.60206
[10] = log10 concentration [M] -5.30103
[11] = log10 concentration [M] -5.69897
[12] = log10 concentration [M] -6.22185
[13] = log10 concentration [M] -7.30103

% tracer bound @LC3A (LC3A [1]; LC3A tracer displacement, normalized on p62-LIR positive control): 26%
FP assay result (normalised FP signal) (LC3A [1]; log10 concentration [M] -3.5): 16.9522 and 16.2308 and 9.017 and 3.246
FP assay result (normalised FP signal) (LC3A [1]; log10 concentration [M] -5.5): 90.532 and 94.4995 and 92.3354 (2×)
FP assay result (normalised FP signal) (LC3A [1]; log10 concentration [M] -8): 101.353 (2×) and 90.1713 and 94.4995
FP assay result (normalised FP signal) (LC3B; log10 concentration [M] -3.5): 5.227 and 1.651 and 6.602 and 11.5543
FP assay result (normalised FP signal) (LC3B; log10 concentration [M] -8.5): 94.9106 and 100.413 (2×) and 103.439
Kd (LC3A [2]; read-out: KD (ITC)): 2000 nM
Structure (SMILES): CCCCCCC(Sc1nc(Cl)cc(Nc2nc(-c3ccc(C(=O)O)cc3)cs2)n1)C(=O)O (stereo not shown) [compound 21]
FP assay result (normalised FP signal) (LC3A [1]; log10 concentration [M] -4): 23.8052 and 27.7728 and 15.8702 and 10.8206
FP assay result (normalised FP signal) (LC3A [1]; log10 concentration [M] -4.5): 40.3968 and 45.4463 and 36.0685 and 29.5762
FP assay result (normalised FP signal) (LC3A [1]; log10 concentration [M] -5): 79.7115 and 85.4824 and 71.4157 and 74.3012
FP assay result (normalised FP signal) (LC3A [1]; log10 concentration [M] -6): 102.435 and 103.156 and 95.2209 and 98.4671
FP assay result (normalised FP signal) (LC3A [1]; log10 concentration [M] -6.5): 94.8602 and 102.795 and 92.3354 and 90.8927
FP assay result (normalised FP signal) (LC3A [1]; log10 concentration [M] -7): 102.074 and 100.271 and 99.1885 and 98.4671
FP assay result (normalised FP signal) (LC3A [1]; log10 concentration [M] -7.5): 103.877 and 100.271 and 96.6637 and 94.4995
FP assay result (normalised FP signal) (LC3A [1]; log10 concentration [M] -8.5): 95.9423 and 95.2209 and 93.4175 and 99.9098
FP assay result (normalised FP signal) (LC3B; log10 concentration [M] -4): 15.956 and 18.4319 and 23.3838 and 18.9821
FP assay result (normalised FP signal) (LC3B; log10 concentration [M] -4.5): 38.7895 and 39.3398 and 43.1912 and 47.3177
FP assay result (normalised FP signal) (LC3B; log10 concentration [M] -5): 78.6795 and 79.2297 and 89.1334 and 88.033
FP assay result (normalised FP signal) (LC3B; log10 concentration [M] -5.5): 90.5089 and 85.8322 and 98.2118 and 94.9106
FP assay result (normalised FP signal) (LC3B; log10 concentration [M] -6): 92.7098 and 95.4608 and 102.063 and 101.238
FP assay result (normalised FP signal) (LC3B; log10 concentration [M] -6.5): 91.0591 and 89.9587 and 97.9367 and 96.8363
FP assay result (normalised FP signal) (LC3B; log10 concentration [M] -7): 91.6094 and 98.762 and 103.439 and 102.063
FP assay result (normalised FP signal) (LC3B; log10 concentration [M] -7.5): 90.2338 and 98.4869 and 99.3122 and 100.138
FP assay result (normalised FP signal) (LC3B; log10 concentration [M] -8): 98.762 and 98.2118 and 100.413 and 102.613

Structure (SMILES): Cc1ccc(C(=O)N(CCCN)[C@@H](c2nc3cc(Cl)ccc3c(=O)n2Cc2ccccc2)C(C)C)cc1 [compound 3, (R)-N-(3-aminopropyl)-N-(1-(3-benzyl-7-chloro-4-oxo-3,4-dihydroquinazolin-2-yl)−2-methylpropyl)−4-methylbenzamide]
autophagy induction (autophagy flux) [3]: significant autophagy activation
effects on cell growth (Incucyte life cell imaging) [3]: profound effects on cell growth
normalized FP signal, p62 LIR tracer displacement (LC3A [1]; log10 concentration [M] -3.82391, listed as 8F20): 97.3684 and 104.737
normalized FP signal, p62 LIR tracer displacement (LC3A [1]; log10 concentration [M] -4.1549, listed as 8F20): 102.105 and 103.947
normalized FP signal, p62 LIR tracer displacement (LC3A [1]; log10 concentration [M] -4.60206, listed as 8F20): 101.053 and 106.053
normalized FP signal, p62 LIR tracer displacement (LC3A [1]; log10 concentration [M] -5, listed as 8F20): 99.7368 and 100.789
normalized FP signal, p62 LIR tracer displacement (LC3A [1]; log10 concentration [M] -5.30103, listed as 8F20): 102.105 and 98.4211
normalized FP signal, p62 LIR tracer displacement (LC3A [1]; log10 concentration [M] -5.69897, listed as 8F20): 97.6316 and 96.0526
normalized FP signal, p62 LIR tracer displacement (LC3A [1]; log10 concentration [M] -6.22185, listed as 8F20): 102.632 and 94.2105
normalized FP signal, p62 LIR tracer displacement (LC3A [1]; [4]): 101.053
normalized FP signal, p62 LIR tracer displacement (LC3A [1]; log10 concentration [M] -6.69897, listed as 8F20): 99.7368
normalized FP signal, p62 LIR tracer displacement (LC3A [1]; log10 concentration [M] -7.30103, listed as 8F20): 103.947 and 101.316
normalized FP signal, p62 LIR tracer displacement (LC3A [1]; [5]): 98.4211
normalized FP signal, p62 LIR tracer displacement (LC3A [1]; log10 concentration [M] -7.79588, listed as 8F20): 93.9474
normalized FP signal, p62 LIR tracer displacement (LC3A [1]; [6]): 102.105
normalized FP signal, p62 LIR tracer displacement (LC3A [1]; log10 concentration [M] -8.08092, listed as 8F20): 93.9474
normalized FP signal, p62 LIR tracer displacement (LC3B; [7]): 79.4737 and 100.789
normalized FP signal, p62 LIR tracer displacement (LC3B; [8]): 91.0526 and 93.9474
normalized FP signal, p62 LIR tracer displacement (LC3B; [9]): 98.6842 and 96.3158
normalized FP signal, p62 LIR tracer displacement (LC3B; log10 concentration [M] -5): 92.3684 and 100.263
normalized FP signal, p62 LIR tracer displacement (LC3B; [10]): 95.7895 and 96.5789
normalized FP signal, p62 LIR tracer displacement (LC3B; [11]): 95.5263 and 96.0526
normalized FP signal, p62 LIR tracer displacement (LC3B; [12]): 92.1053 and 92.3684
normalized FP signal, p62 LIR tracer displacement (LC3B; [4]): 97.6316 and 96.5789
normalized FP signal, p62 LIR tracer displacement (LC3B; [13]): 93.1579 and 99.7368
normalized FP signal, p62 LIR tracer displacement (LC3B; [5]): 100.263 and 96.8421
normalized FP signal, p62 LIR tracer displacement (LC3B; [6]): 95.2632 and 96.3158
compound titration LC3B (displacement curve, FP signal) (LC3B; [7]): 79.4737 and 100.789
compound titration LC3B (displacement curve, FP signal) (LC3B; [8]): 91.0526 and 93.9474
compound titration LC3B (displacement curve, FP signal) (LC3B; [9]): 98.6842 and 96.3158
compound titration LC3B (displacement curve, FP signal) (LC3B; log10 concentration [M] -5): 92.3684 and 100.263
compound titration LC3B (displacement curve, FP signal) (LC3B; [10]): 95.7895 and 96.5789
compound titration LC3B (displacement curve, FP signal) (LC3B; [11]): 95.5263 and 96.0526
compound titration LC3B (displacement curve, FP signal) (LC3B; [12]): 92.1053 and 92.3684
compound titration LC3B (displacement curve, FP signal) (LC3B; [4]): 97.6316 and 96.5789
compound titration LC3B (displacement curve, FP signal) (LC3B; [13]): 93.1579 and 99.7368
compound titration LC3B (displacement curve, FP signal) (LC3B; [5]): 100.263 and 96.8421
compound titration LC3B (displacement curve, FP signal) (LC3B; [6]): 95.2632 and 96.3158
outcome of ITC titration (LC3A [2]): did not yield significant binding heats

Structure (SMILES): O=C1Nc2ccc(Br)cc2C1=Cc1cc(O)c(O)c(Br)c1 [compound 1]
autophagy induction (autophagy flux) [3]: significant autophagy activation
effects on cell growth (Incucyte life cell imaging) [3]: profound effects on cell growth

Structure (SMILES): O=c1cc(-c2ccccc2)c2c(O)cc(O)cc2o1 [compound 2]
autophagy induction (autophagy flux) [3]: did not induce autophagy
effects on cell growth (Incucyte life cell imaging) [3]: No induction of autophagy or effects

Source: PMC11589570, “Critical assessment of LC3/GABARAP ligands used for degrader development and ligandability of LC3/GABARAP binding pockets” (Nature Communications, 2024)
